According to patent publication US8293705B2, “HCV protease inhibitors and uses thereof” (Avila Therapeutics, Inc., priority 2007, dated 2012):

Tests used:
HCV NS3/4A wild type = molecular target: T1, HCV NS3/4A wild type (Hepatitis C virus genotype 1b, UniProt Q9WMX2); assay: Mass spectrometric analysis of covalent modification (MALDI-TOF); type: binding; details: 10× excess of test compound to protein; for Covalent modification of HCV NS3/4A wild type: MALDI-TOF
T1 construct: HCV NS3/4A wild type (wt) was incubated for 1 hr at a 10× fold access of test compound to protein; purchased Bioenza, Calif
Method: Mass spectrometric analysis of HCV wild type or HCV variant C159S in the presence of test compound is performed. 100 pmols of HCV wild type (Bioenza, Calif.) is incubated with test compound for 1 hr and 3 hrs at 10-fold access of test compound to protein. 1 ul aliquots of the samples (total volume of 4.24 ul) are diluted with 10 ul of 0.1% TFA prior to micro C4 ZipTipping directly onto the MALDI target using Sinapinic acid as the desorption matrix (10 mg/mL in 0.1% TFA:Acetonitrile 50:50). Analyses are performed on a Shimadzu Biotech Axima TOF2 (Shimadzu Instruments) matrix-assisted-laser desorption/ionization Time-of-Flight (MALDI-TOF) mass spectrometer. The same procedure is carried out on 100 pmols of HCV C159S mutant of HCV protease for 3 hrs at 10-fold excess of test compound to protein.
As depicted in FIGS. 1 and 2, mass spectrometric analysis of HCV wild type in the presence of test compounds I-1 and I-25 was performed using the following protocol: HCV NS3/4A wild type (wt) was incubated for 1 hr at a 10× fold access of test compound to protein. 2 ul aliquots of the samples were diluted with 10 ul of 0.1% TFA prior to micro C4 ZipTipping directly onto the MALDI target using Sinapinic acid as the desorption matrix (10 mg/ml in 0.1% TFA:Acetonitrile 50:50). For intact protein mass measurement the instrument was set in linear mode using a pulsed extraction setting of 24,500 and apomyoglobin as the standard to calibrate the instrument.

[1] = tested on: HCV RNA replicon in cell line ET (luc-ubi-neo/ET), human Huh7 hepatoma; assay: HCV RNA replicon assay, Example 14 Method A; type: cell-based; details: Hepatitis C virus, Huh-7, assay of Example 14, 72 hr; for IC50: read-out: Inhibition, Replicon (IC50); for IC90: read-out: Inhibition, Replicon, IC90 value
Method: The compounds were assayed to evaluate the antiviral activity and cytotoxicity of compounds in vitro using HCV RNA replicons. This assay used the cell line ET (luc-ubi-neo/ET), which is a human Huh7 hepatoma cell line that contains an HCV RNA replicon with a stable luciferase (Luc) reporter and three cell culture-adaptive mutations. […]
The ET cell line was grown in Dulbecco's modified essential media (DMEM), 10% fetal bovine serum (FBS), 1% penicillin-streptomycin (pen-strep), 1% glutamine, 250 μg/mL G418 in a 5% CO2 incubator at 37° C. All cell culture reagents were obtained from Mediatech (Manassas, Va.). Cells were trypsinized (1% trypsin:EDTA) and plated out at 5×10^3 cells/well in white 96-well assay plates (Costar) dedicated to cell number (cytotoxicity) or antiviral activity assessments. Drugs were added at six 3-fold concentrations each and the assay was run in DMEM, 5% FBS, 1% pen-strep, 1% glutamine. Human interferon alpha-2b (PBL Biolabs, New Brunswick, N.J.) was included in each run as a positive control compound. Cells were processed 72 hr post drug addition when the cells are still subconfluent. Antiviral activity was measured by analyzing replicon-derived luciferase activity using the Steady-Glo Luciferase Assay System (Promega, Madison, Wis.) according to manufacturer's instruction. The number of cells in each well was determined by CytoTox-1 reagent (Promega). Compound profile was derived by calculating applicable EC50 (effective concentration inhibiting virus replication by 50%), EC90 (effective concentration inhibiting virus replication by 90%), IC50 (concentration decreasing cell viability by 50%) and SI50 (selective index: […]) values.

[2] = molecular target: T2, HCV NS3/4A 1b protease D168A (Hepatitis C virus genotype 1b, UniProt Q9WMX2, D1194A); assay: HCV protease FRET assay (IC50_APP), Example 16; type: biochemical
T2 construct: 10× stocks of NS3/4A protease enzyme from Bioenza (Mountain View, Calif.); purchased Bioenza (Mountain View, Calif.)
Method: (§1) The following protocol was used to generate “apparent” IC50 (IC50 APP) values as depicted in Table 6, below. […] 5 μL of each enzyme were added to Corning (#3575) 384-well, black, microtiter plates (Corning, N.Y.) after spotting a 0.5 μL volume of 50% DMSO and serially diluted compounds prepared in 50% DMSO. Protease reactions were immediately started after enzyme addition with the addition of 45 μL of the FRET substrate and monitored for 60-90 minutes at λex485/λem520 in a Synergy^4 plate reader from BioTek (Winooski, Vt.). At the conclusion of each assay, progress curves from each well were examined for linear reaction kinetics and fit statistics (R^2, 95% confidence intervals, absolute sum of squares).
(§2) The compound numbers correspond to the compound numbers in Table 3. […] ;

[3] = molecular target: T3, HCV NS3/4A 1b protease wild type (Hepatitis C virus genotype 1b, UniProt Q9WMX2); assay: HCV protease FRET assay (IC50_APP), Example 16; type: biochemical
T3 construct: 10× stocks of NS3/4A protease enzyme from Bioenza (Mountain View, Calif.); purchased Bioenza (Mountain View, Calif.)
Method: as §1, §2

[4] = molecular target: T4, HCV NS3/4A 1b protease A156T (Hepatitis C virus genotype 1b, UniProt Q9WMX2, A1182T); assay: HCV protease FRET assay (IC50_APP), Example 16; type: biochemical
T4 construct: 10× stocks of NS3/4A protease enzyme from Bioenza (Mountain View, Calif.); purchased Bioenza (Mountain View, Calif.)
Method: as §1, §2

[5] = molecular target: T5, HCV NS3/4A 1b protease R155K (Hepatitis C virus genotype 1b, UniProt Q9WMX2, R1181K); assay: HCV protease FRET assay (IC50_APP), Example 16; type: biochemical; details: reaction started immediately after enzyme addition, read-out: Inhibition (apparent IC50, IC50_APP), HCV R155K
T5 construct: 10× stocks of NS3/4A protease enzyme from Bioenza (Mountain View, Calif.); purchased Bioenza (Mountain View, Calif.)
Method: as §1, §2

| Compound | Covalent modification of HCV NS3/4A wild type (HCV NS3/4A wild type) | IC50 [1] [nM] | IC90 [1] [nM] | IC50 [2] [nM] | IC50 [3] [nM] | IC50 [4] [nM] | IC50 [5] [nM] | Mass increase of new protein species vs protein with no compound (HCV NS3/4A wild type; 1 hr) [Da] |
| --- | --- | --- | --- | --- | --- | --- | --- | --- |
| C=C[C@@H]1C[C@]1(NC(=O)[C@@H]1C[C@@H](OC(=O)N2Cc3cccc(F)c3C2)CN1C(=O)[C@H](CNS(=O)(=O)C=C)NC(=O)OC(C)(C)C)C(=O)NS(=O)(=O)C1CC1 [Compound I-2, (3R,5S)-1-((S)-2-(tert-butoxycarbonylamino)-3-(vinylsulfonamido)propanoyl)-5-((1R,2S)-1-(cyclopropylsulfonylcarbamoyl)-2-vinylcyclopropylcarbamoyl)pyrrolidin-3-yl 4-fluoroisoindoline-2-carboxylate] | measurable covalent modification | 10 to 100 | 100 to 1000 | < 10 | < 10 | < 10 |  |  |
| C=CC(=O)NCC[C@H](NC(=O)OC(C)(C)C)C(=O)N1C[C@H](OC(=O)N2Cc3cccc(F)c3C2)C[C@H]1C(=O)N[C@]1(C(=O)NS(=O)(=O)C2CC2)C[C@H]1C=C [Compound I-5, (3R,5S)-1-((S)-4-acrylamido-2-(tert-butoxycarbonylamino)butanoyl)-5-((1R,2S)-1-(cyclopropylsulfonylcarbamoyl)-2-vinylcyclopropylcarbamoyl)pyrrolidin-3-yl 4-fluoroisoindoline-2-carboxylate] | measurable covalent modification | 10 to 100 | 100 to 1000 | 100 to 1000 | < 10 | 10 to 100 |  |  |
| C=CC(=O)N(C)CC[C@H](NC(=O)OC(C)(C)C)C(=O)N1C[C@H](OC(=O)N2Cc3cccc(F)c3C2)C[C@H]1C(=O)N[C@]1(C(=O)NS(=O)(=O)C2CC2)C[C@H]1C=C [Compound I-13, (3R,5S)-1-((S)-2-(tert-butoxycarbonylamino)-4-(N-methylacrylamido)butanoyl)-5-((1R,2S)-1-(cyclopropylsulfonylcarbamoyl)-2-vinylcyclopropylcarbamoyl)pyrrolidin-3-yl 4-fluoroisoindoline-2-carboxylate] | measurable covalent modification | 10 to 100 | 100 to 1000 | 100 to 1000 | < 10 | < 10 |  |  |
| C=CC(=O)N(C)C[C@H](NC(=O)OC1CCCC1)C(=O)N1C[C@H](OC(=O)N2Cc3cccc(F)c3C2)C[C@H]1C(=O)N[C@]1(C(=O)NS(=O)(=O)C2CC2)C[C@H]1C=C [Compound I-20, (3R,5S)-1-((S)-2-(cyclopentyloxycarbonylamino)-3-(N-methylacrylamido)propanoyl)-5-((1R,2S)-1-(cyclopropylsulfonylcarbamoyl)-2-vinylcyclopropylcarbamoyl)pyrrolidin-3-yl 4-fluoroisoindoline-2-carboxylate] | measurable covalent modification | 10 to 100 | 100 to 1000 | 10 to 100 | < 10 | < 10 |  |  |
| C=C[C@@H]1C[C@]1(NC(=O)[C@@H]1C[C@@H](OC(=O)N2Cc3cccc(F)c3C2)CN1C(=O)[C@@H](NC(=O)OC(C)(C)C)[C@@H](C)OC(=O)/C=C/C)C(=O)NS(=O)(=O)C1CC1 [Compound I-22, (3R,5S)-1-((2S,3R)-3-((E)-but-2-enoyloxy)-2-(tert-butoxycarbonylamino)butanoyl)-5-((1R,2S)-1-(cyclopropylsulfonylcarbamoyl)-2-vinylcyclopropylcarbamoyl)pyrrolidin-3-yl-4-fluoroisoindoline-2-carboxylate] | measurable covalent modification | 10 to 100 | 10 to 100 | 100 to 1000 | < 10 | 10 to 100 | 10 to 100 |  |
| C=C[C@@H]1C[C@]1(NC(=O)[C@@H]1C[C@@H](OC(=O)N2Cc3cccc(F)c3C2)CN1C(=O)[C@H](COC(=O)C(=C)NC(=O)OC(C)(C)C)NC(=O)OC(C)(C)C)C(=O)NS(=O)(=O)C1CC1 [Compound I-23, (3R,5S)-1-((S)-2-(tert-butoxycarbonylamino)-3-(2-(tert-butoxycarbonylamino)acryloyloxy)propanoyl)-5-((1R,2S)-1-(cyclopropylsulfonylcarbamoyl)-2-vinylcyclopropylcarbamoyl)pyrrolidin-3-yl 4-fluoroisoindoline-2-carboxylate] | measurable covalent modification | 10 to 100 | 100 to 1000 | < 10 | < 10 | < 10 |  |  |
| C=C[C@@H]1C[C@]1(NC(=O)[C@@H]1C[C@@H](OC(=O)N2Cc3cccc(F)c3C2)CN1C(=O)[C@H](CCC(=O)C=C(C)C)NC(=O)OC(C)(C)C)C(=O)NS(=O)(=O)C1CC1 [Compound I-25, (3R,5S)-1-((S)-2-(tert-butoxycarbonylamino)-7-methyl-5-oxooct-6-enoyl)-5-((1R,2S)-4-(cyclopropylsulfonylcarbamoyl)-2-vinylcyclopropylcarbamoyl)pyrrolidin-3-yl 4-fluoroisoindoline-2-carboxylate] | conversion to a new peak | < 10 | 10 to 100 | 100 to 1000 | < 10 | 10 to 100 | 10 to 100 | 773 |
| C=C[C@@H]1C[C@]1(NC(=O)[C@@H]1CC(OC(=O)N2Cc3cccc(F)c3C2)CN1C(=O)[C@H](CCC(=O)C(=C)C)NC(=O)OC(C)(C)C)C(=O)NS(=O)(=O)C1CC1 (stereo partly drawn) [Compound I-27] | measurable covalent modification | 10 to 100 | 100 to 1000 | < 10 | < 10 | < 10 |  |  |
